Source: patent publication US10377763B2, “Morphinan derivative and medical usage thereof” (UNIVERSITY OF TSUKUBA, priority 2015, dated 2019)
Where “and” joins values, the source holds several entries; their conditions need not be identical. Equal values may be shown once. Read-outs that look alike come from different tables or passages of the source.

Assays:
human OX1R = human OX1R (Homo sapiens (Human), UniProt O43613); assay: Measurement of antagonistic activity against orexin receptors (intracellular calcium, CHOOX1R cells); type: cell-based; details: for antagonistic activity against human OX1 receptor (in words): summary of Table 6
Chain of human OX1R (O43613 whole entry): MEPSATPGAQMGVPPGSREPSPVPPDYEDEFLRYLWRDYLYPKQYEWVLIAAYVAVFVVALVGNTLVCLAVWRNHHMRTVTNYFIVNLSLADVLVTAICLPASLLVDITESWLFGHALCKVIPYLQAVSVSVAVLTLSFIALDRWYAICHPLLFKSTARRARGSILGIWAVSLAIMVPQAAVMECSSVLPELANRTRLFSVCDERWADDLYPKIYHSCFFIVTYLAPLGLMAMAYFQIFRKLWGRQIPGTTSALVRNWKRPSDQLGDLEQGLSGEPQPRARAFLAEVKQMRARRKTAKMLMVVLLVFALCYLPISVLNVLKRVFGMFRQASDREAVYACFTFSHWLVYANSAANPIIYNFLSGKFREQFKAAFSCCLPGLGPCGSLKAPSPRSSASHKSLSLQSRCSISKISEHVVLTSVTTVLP
Procedure: (§1) The Chinese hamster ovary (CHO) cell lines CHOOX1R and CHOOX2R were established by modifying CHO cells to constantly express the NFAT-luciferase gene and either the human OX1R or human OX2R gene. Those cells were plated at 10,000 cells/well in 96-well multiplates with DMEM (manufactured by Sigma-Aldrich Co. LLC) supplemented with 5% FBS (manufactured by Thermo Scientific Inc.) and incubated at 37° C. and 5% CO2 for 48 hours. After removal of the medium, 100 μL of an assay buffer (20 mM HEPES (manufactured by Sigma-Aldrich Co. LLC), Hank's balanced salt solution (manufactured by Gibco), 0.1% BSA (manufactured by Sigma-Aldrich Co. LLC), 2.5 mM probenecid acid (manufactured by Wako Pure Chemical Industries, Ltd.), pH 7.4) containing 5 μM Fura-2AM (manufactured by Cayman Chemical Co.) was added to each well, and incubated at 37° C. and 5% CO2 for 60 minutes. After removal of the buffer containing Fura-2AM, 75 μL of the assay buffer was added to each well. Then, […] of the assay buffer containing a test compound at various concentrations and OX-A (manufactured by Peptide Institute, Inc.) was added to start the reaction. The change in intracellular calcium ion concentration induced by the reaction was evaluated by the ratio of fluorescent intensities, which were measured at a wavelength of 510 nm based on the two wavelength excitation approach using FDSS 7000 (manufactured by Hamamatsu Photonics K.K.) with fluorescence excitation at 340 nm and 380 nm. A concentration-response curve on the antagonistic activity was plotted from the values of maximal fluorescent intensity ratio determined when various concentrations of a test compound were added in the presence of […] of OX-A, where a value of maximal fluorescent intensity ratio determined by adding 300 pM of OX-A alone corresponds to 100% and a value of maximal fluorescent intensity ratio determined by adding the assay buffer alone corresponds to 0%. Based on the resulting non-linear regression curve, the 50% maximal inhibitory concentration (IC50) was calculated. Each test compound was dissolved in DMSO to a concentration of 10 mM (the final concentration of DMSO was 1%), and then diluted with the assay buffer to give a final concentration of 3.0×10^−10 M to 1.0×10^−5 M (a common ratio of 3), while OX-A was diluted to a final concentration of 300 pM. The experiment was performed in quadruplicate plates, and the results of the four independent measurements were averaged to give the value of each reaction, and then the IC50 of a sample was calculated. If the sample number was 2 or more, the averaged IC50 was used.

human OX2R = human OX2R (Homo sapiens (Human), UniProt O43614); assay: Measurement of antagonistic activity against orexin receptors (intracellular calcium, CHOOX2R cells); type: cell-based
Chain of human OX2R (O43614 whole entry): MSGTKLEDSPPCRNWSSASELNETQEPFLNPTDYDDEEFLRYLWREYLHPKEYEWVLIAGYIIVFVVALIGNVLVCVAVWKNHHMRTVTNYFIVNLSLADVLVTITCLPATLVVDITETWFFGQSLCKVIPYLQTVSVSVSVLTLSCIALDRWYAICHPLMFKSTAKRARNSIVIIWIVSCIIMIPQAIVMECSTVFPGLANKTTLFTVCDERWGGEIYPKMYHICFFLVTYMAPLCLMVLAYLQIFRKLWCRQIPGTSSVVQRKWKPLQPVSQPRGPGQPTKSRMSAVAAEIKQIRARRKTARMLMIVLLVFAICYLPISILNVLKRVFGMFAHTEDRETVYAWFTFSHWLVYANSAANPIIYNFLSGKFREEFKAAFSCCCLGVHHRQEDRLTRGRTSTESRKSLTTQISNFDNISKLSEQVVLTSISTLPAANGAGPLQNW
Procedure: as §1

[1] = tested on: male ICR mice with morphine physical dependence; assay: Evaluation of the prophylactic effect on drug dependence (naloxone-induced withdrawal syndrome in morphine-dependent mice); type: in vivo; details: 10 mg/kg repeatedly with morphine Day 1-5, naloxone 3 mg/kg s.c.
Procedure: Increasing doses of morphine hydrochloride dissolved in saline were administered subcutaneously to 7-week-old male ICR mice twice daily (dosing interval: about 12 hours) for four days (dose: Day 1, 8 mg/kg followed by 15 mg/kg; Day 2, 20 mg/kg followed by 25 mg/kg; Day 3, 30 mg/kg followed by 35 mg/kg; Day 4, 40 mg/kg followed by 45 mg/kg). On Day 1 to Day 4, the mice were administered intraperitoneally with the compound of Example 45 (Compound 26) at 10 mg/kg or saline, the solvent of the compound, 30 minutes prior to every first administration of morphine hydrochloride. On Day 5, the mice were administered subcutaneously with the compound of Example 45 (Compound 26) at 10 mg/kg or saline, and 30 minutes later administered subcutaneously with morphine hydrochloride at 45 mg/kg as the final dose. Two hours after the final administration of morphine hydrochloride, the mice were administered subcutaneously with naloxone hydrochloride at 3 mg/kg; symptoms of withdrawal syndrome (jumping, body shake, ptosis, forepaw tremor, rearing, body weight loss, and diarrhea) which appeared 60 minutes after administration of naloxone hydrochloride were observed. Body weight was measured before and every 15 minutes after naloxone hydrochloride administration. Moreover, diarrhea was graded according to a three-point scoring system based on the appearance of feces: normal feces (Normal), loose feces (Slightly), and liquid feces or liquid diarrhea (Severe). The other symptoms of withdrawal syndrome were evaluated based on the presence or absence of their manifestation. Statistical analysis was performed using chi square test and two-way analysis of variance and setting the significance level at p<0.05.

[2] = tested on: male ICR mice with morphine physical dependence; assay: Evaluation of the therapeutic effect on drug dependence (naloxone-induced withdrawal syndrome in morphine-dependent mice); type: in vivo; details: 10 mg/kg i.p. 30 minutes prior to naloxone 3 mg/kg s.c., after repeated morphine
Procedure: Increasing doses of morphine hydrochloride dissolved in saline were administered subcutaneously to 7-week-old male ICR mice twice daily (dosing interval: about 12 hours) for four days (dose: Day 1, 8 mg/kg followed by 15 mg/kg; Day 2, 20 mg/kg followed by 25 mg/kg; Day 3, 30 mg/kg followed by 35 mg/kg; Day 4, 40 mg/kg followed by 45 mg/kg). On Day 5, the mice were administered subcutaneously with morphine hydrochloride at 45 mg/kg as the final dose. Two hours after the final administration of morphine hydrochloride, the mice were administered subcutaneously with naloxone hydrochloride at 3 mg/kg. The mice were administered intraperitoneally with the compound of Example 45 (Compound 26) at 10 mg/kg or saline, the solvent of the compound, 30 minutes prior to the administration of naloxone hydrochloride. Symptoms of withdrawal syndrome (jumping, body shake, ptosis, forepaw tremor, rearing, body weight loss, and diarrhea) which appeared 60 minutes after the last dose of naloxone hydrochloride were observed. Body weight was measured before and every 15 minutes after naloxone hydrochloride administration. Moreover, diarrhea was graded according to a three-point scoring system based on the appearance of feces: normal feces, loose feces, and liquid feces or liquid diarrhea. The other symptoms of withdrawal syndrome were evaluated based on the presence or absence of their manifestation. Statistical analysis was performed using chi square test and two-way analysis of variance and setting the significance level at p<0.05.

[3] = CHOOX1R cells, 300 pM OX-A, Fura-2 calcium, read-out: OX1 (IC50)
[4] = CHOOX2R cells, 300 pM OX-A, Fura-2 calcium, read-out: OX2 (IC50)

COc1ccc2c3c1O[C@H]1[C@H](N(C)C(=O)/C=C/c4ccccn4)CC[C@@]4(O)[C@@H](C2)N(S(=O)(=O)c2ccccc2N(C)C)CC[C@]314 [Example 45, (E)-N-[(4R,4aS,7R,7aR,12bS)-3-{[2-(dimethylamino)phenyl]sulfonyl}-4a-hydroxy-9-methoxy-2,3,4,4a,5,6,7,7a-octahydro-1H-4,12-methanobenzofuro[3,2-e]isoquinolin-7-yl]-N-methyl-3-(pyridin-2-yl)acrylamide]
IC50 (human OX1R): 0.00361 µM
antagonistic activity against human OX1 receptor (in words) (human OX1R): potent and selective antagonistic activity
IC50 (human OX2R): > 10 µM
Body shake: number of animals with withdrawal syndrome/total number of animals [1]: 6/8
Diarrhea score Liquid feces or liquid diarrhea (number of corresponding animals/total number of animals) [1]: 2/8
Diarrhea score Loose feces (number of corresponding animals/total number of animals) [1]: 4/8
Diarrhea score Normal feces (number of corresponding animals/total number of animals) [1]: 2/8
Forepaw tremor: number of animals with withdrawal syndrome/total number of animals [1]: 6/8
Jumping: number of animals with withdrawal syndrome/total number of animals [1]: statistically significantly suppressed and 1/8*
Ptosis: number of animals with withdrawal syndrome/total number of animals [1]: tendency to suppress and 4/8
Rearing: number of animals with withdrawal syndrome/total number of animals [1]: tendency to suppress and 5/8
diarrhea (withdrawal syndrome, in words) [1]: statistically significantly suppressed
body weight loss (withdrawal syndrome) ([1]; FIG. 1): statistically significantly suppressed
Body shake: number of animals with withdrawal syndrome/total number of animals [2]: 7/13
Diarrhea score Liquid feces or liquid diarrhea (number of corresponding animals/total number of animals) [2]: 3/13
Diarrhea score Loose feces (number of corresponding animals/total number of animals) [2]: 8/13
Diarrhea score Normal feces (number of corresponding animals/total number of animals) [2]: 2/13
Forepaw tremor: number of animals with withdrawal syndrome/total number of animals [2]: 11/13
Jumping: number of animals with withdrawal syndrome/total number of animals [2]: statistically significantly suppressed and 2/13**
Ptosis: number of animals with withdrawal syndrome/total number of animals [2]: tendency to suppress and 3/13
Rearing: number of animals with withdrawal syndrome/total number of animals [2]: 11/13
diarrhea (withdrawal syndrome, in words) [2]: statistically significantly suppressed
body weight loss (withdrawal syndrome) ([2]; FIG. 2): statistically significantly suppressed

COc1ccc2c3c1O[C@H]1[C@H](N(C)C(=O)/C=C/c4ccoc4)CC[C@@]4(O)[C@@H](C2)N(S(=O)(=O)c2ccccc2Br)CC[C@]314 [Example 20]
IC50 (human OX1R; [3]): 0.0562 µM
antagonistic activity against human OX1 receptor (in words) (human OX1R): potent and selective antagonistic activity
IC50 (human OX2R; [4]): > 10 µM

COc1ccc2c3c1O[C@H]1[C@H](N(C)C(=O)Nc4ccccc4)CC[C@@]4(O)[C@@H](C2)N(S(=O)(=O)c2ccccc2)CC[C@]314 [Example 41]
IC50 (human OX1R; [3]): 0.159 µM
antagonistic activity against human OX1 receptor (in words) (human OX1R): potent and selective antagonistic activity
IC50 (human OX2R; [4]): > 10 µM
